Experimental findings from US7759392B2, “Pharmaceutical compounds” (Nicox S.A., priority 1999, dated 2010) are described below.

Entries after “also recorded” stand apart in the source; their conditions may differ.

Data set [1] deals with gastrointestinal mucosa. To be noted: rats; for Gastro-enteropathy (% incidence) without NEM: maximum tolerated dose. The procedure: The animals (rats) are distributed in the following groups (no. 10 animals for group):
• 1° group: treatment: only carrier (aqueous suspension 1% w/v of carboxymethylcellulose, dose: 5 ml/Kg when the drug is administered by os, or a physiologic solution when parenterally administered, i.e. by subcutaneous, intraperitoneal, intravenous or intermuscular route), • 2° group: treatment: carrier as above defined+NEM, B) Groups Treated with the Drug: • group I: treatment: carrier+drug, • group II: treatment: carrier+drug+NEM.
The administration routes are those known for the drug, and can be the oral or subcutaneous, intraperitoneal, intravenous or intramuscular route.
The animals are sacrificed after 24 hours and then one proceeds to the evaluation of the damage to the gastrointestinal mucosa.
Test 1—experimental model in vivo with N-ethylmaleimide (NEM): study of the gastric tolerability of some drugs screened as precursors of the compounds of the invention.
The animals (rats, weight about 200 g) are distributed in the following groups (No. 10 animals for group):
• 1° group: treatment: only carrier (aqueous suspension 1% w/v of carboxymethylcellulose, dose: 5 ml/Kg when the drug is administered by os, physiologic solution when by parenteral route), • 2° group: treatment: carrier+NEM, B) Groups Administered with Each Drug: • group I: treatment: carrier+drug, • group II: treatment: carrier+drug+NEM.
The drug is administered one hour later, in suspension in the carrier. Animals are sacrificed after 24 hours and evaluation of the damage to the gastrointestinal mucosa is made by counting the number of rats, inside each group, with lesions to the stomach at a visual inspection. The total number of said rats is then divided by the total number of rats of the group and multiplied by 100.

Data set [2] has as its system gastrointestinal mucosa, liver (GPT), vascular endothelium (blood pressure). To be noted: rat, in vivo; for Gastroenteropathy % without L-NAME: 4 weeks. The procedure: The endothelial dysfunction is evaluated by determining the damage to the gastrointestinal mucosa, the hepatic damage and blood hypertension induced by administration of L-NAME.
The animals (rats) are divided in groups as herein below shown. The group receiving L-NAME is treated for 4 weeks with said compound dissolved at a concentration of 400 mg/liter in drinking water. The following groups are constituted (No. 10 animals for group):
• 1° group: only carrier (aqueous suspension 1% w/v of carboxymethylcellulose, dose: 5 ml/Kg when the drug is administered by os, physiologic solution when administered parenterally), • 2° group: carrier+L-NAME, B) Groups Administered with the Drug: • 3° group: carrier+drug, • 4° group: carrier+drug+L-NAME.
The administration routes are those known for the drug, and can be the oral or subcutaneous, intraperitoneal, intravenous or intramuscular route. […] The drug is administered once a day for 4 weeks.
At the end of the four weeks treatment access to water is prevented and after 24 hours the animals are sacrificed.
One hour before the sacrifice blood-pressure is determined, and a blood pressure increase is taken as an evaluation of the damage to vascular endothelium. […] The hepatic damage is determined by evaluation of the glutamic-pyruvic transaminase (GPT increase) after sacrifice.
Test 3—experimental in vivo model with N^w-nitro-L-arginine-methyl ester (L-NAME): gastric tolerability (gastrointestinal damage incidence), hepatic (GPT dosage, glutamic-pyruvic transaminase) and cardiovascular (blood pressure) of some drugs screened as precursors of the compounds of the invention.
The endothelial dysfunction is evaluated by determining the damage induced by L-NAME administration to the gastrointestinal mucosa, the hepatic damage (GPT increase), and the vascular endothelium or cardiovascular damage as blood hypertension.
The animals (rats, average weight 200 g) are divided in groups as herein below described. The group receiving L-NAME is treated for 4 weeks with said compound dissolved at the concentration of 400 mg/liter in drinking water. The following groups (No. 10 animals for group) are constituted:
• 1° group: treatment: only carrier (aqueous suspension 1% w/v of carboxymethylcellulose, dose: 5 ml/Kg when the drug is administered by os, physiologic solution when by parenteral route), • 2° group: treatment: carrier+L-NAME, B) Groups Treated with the Drug: • 3° group: treatment: carrier+drug, • 4° group: treatment: carrier+drug+L-NAME.
Each drug is administered once a day for 4 weeks.
The maximum tolerated dose of the drug being administered to the animals is determined by evaluating, in a separate dose scaling up experiment on untreated animals, the appearance in the animals of symptoms such as enteropathy, diarrhoea, depression, tremor, sedation.
At the end of the four weeks access to water is prevented and after 24 hours the animals are sacrificed.
One hour before the sacrifice blood pressure is determined and a blood pressure increase is taken as an indication of a damage being occurred to vascular endothelium.
The hepatic damage is determined by evaluation after the sacrifice of the glutamic-pyruvic transaminase (GPT increase).
The % gastric lesions have been determined as in Test 1.

The test system of data set [3] is human endothelial cells of the umbilical vein. The experiment in a line: Test 2 (CIP): apoptosis (DNA fragmentation) induced by cumene hydroperoxide in endothelial cells. The format is cell-based. To be noted: drug 10^-4 M, CIP 5 mM; for Apoptosis % with respect to the controls treated only with CIP / activity at 100 µM: one hour; for activity at 100 µM: Homo sapiens, Endothelial cell, 1 h, read-out: Apoptosis % with respect to the controls treated only with CIP. The procedure:
Test 2 (CIP): Protection parameter of endothelial cell against the oxidative stress induced by cumene hydroperoxide (CIP).
Human endothelial cells of the umbilical vein are prepared according to an usual standard procedure. Fresh umbilical veins are filled with a 0.1% by weight collagenase solution and incubated at 37° C. for 5 minutes.
The cells are collected from the perfusate by centrifugation and harvested in culture flasks T-75, pretreated with human fibronectin. The cells are then harvested in the same medium, further added with 10 ng/ml of bovine hypothalamic growth factor. When the cells of the primary cell culture (i.e. that directly obtained from ex-vivo) form a single layer of confluent cells (about 8,000,000 cells/flask), the culture is stopped and the layers washed and trypsinized. The cellular suspensions are transferred into the wells of a cell culture plate having 24 wells, half of which is then additioned with the same culture medium containing the drug at a 10^−4M concentration, and harvested in a thermostat at 37° C. at a constant moisture. Only the cells coming from said first sub-cultures are used for the experiments with cumene hydroperoxide (CIP).
Before starting the test, the cellular culture medium is removed and the cellular layers are carefully washed with a physiologic solution at a temperature of 37° C. The wells of the culture plate are then incubated for one hour with CIP at a 5 mM concentration in the culture medium. […] 5 replicates for each sample are carried out.
Human endothelial cells of the umbilical vein are prepared according to a standard method. Fresh umbilical veins are filled with a collagenase solution 0.1% by weight and incubated at 37° C. for 5 minutes.
The cells are collected from the perfusate by centrifugation at 800 rpm and harvested in culture flasks T-75, pretreated with human fibronectin. Cells are then harvested in the same medium, added with bovine hypothalamic growth factor (100 ng/ml). When the cells of the primary cell culture (the cells directly removed from ex-vivo umbilical vein) form a single layer of confluent cells (about 8,000,000 cells/flask), harvesting is stopped and the layers are washed and trypsinized. The cellular suspensions are transferred into wells of a culture plate having 24 wells, half of said wells being added with the same culture medium containing the drug at a 10^−4M concentration, and harvested in a thermostat at 37° C. at a constant moisture (90%), CO2=5%. When the drug is not soluble in the culture medium, it is formerly dissolved in a small amount of dimethylsulphoxide. The maximum amount of dimethylsulphoxide which can be added to the culture medium is 0.5%. Only the cells coming from these first subcultures are used for the tests with cumene hydroperoxide (CIP).
Before starting the test, the cellular culture medium is removed and the cellular layers are carefully washed with a standard physiologic solution buffered with phosphate 0.1 M pH 7.0, at the temperature of 37° C. The content of each well is then incubated for one hour with a CIP suspension in the culture medium at a 5 mM concentration. Evaluation of the cellular damage (apoptosis) is carried out by determining the percent variation of the DNA fragmentation in the cultures containing the drug+CIP with respect to the controls treated with CIP only. […] The fluorescence of each sample was determined on 5 replicates. Statistic evaluation has been made with t Student test (p<0.01).

For data set [4], the system named is gastrointestinal mucosa. The following applies: male, Wistar, rat, in vivo, 6 h. On the procedure:
Gastric lesions induced by administration of the compounds of the invention in the confront of the corresponding drug precursor.
The animals have been sacrificed 6 hours after the administration. The gastrointestinal mucosa has been removed and inspected. The incidence of the gastrointestinal damage has been evaluated as described in experiment F1.

With `CCCCC(C)(O)C/C=C/[C@H]1[C@H](O)CC(=O)[C@@H]1CCCCCCC(=O)OC` (mixture of isomers) [Misoprostol], the “Gastro-enteropathy (% incidence) without NEM” value in data set [1] (24 hours) was 0%. Also, in data set [2], the “Blood pressure % without L-NAME” value amounted to 100%, the “GPT % without L-NAME” value is listed as 100% and the “Gastroenteropathy % without L-NAME” value stood at 0%.
As to `Nc1nc2c(ncn2COCCO)c(=O)[nH]1` [Acyclovir, aciclovir], in data set [3], the “inhibition of apoptosis induced by CIP (in words, p<0.01)” value (“inhibition … (in words, p<0.01)” for short) is “do not significantly inhibit apoptosis” and the “Apoptosis % with respect to the controls treated only with CIP” value (“Apoptosis %” below) is reported as 95%.
For `Nc1c(Br)cc(Br)cc1CN[C@H]1CC[C@H](O)CC1` [Ambroxol, ambroxol], the Gastropathy % incidence in data set [4] was 60%. In data set [1] (NEM 25 mg/kg s.c. one hour before drug, 24 hours), the “Gastro-enteropathy (% incidence) with NEM” value amounted to 80%. The “gastrointestinal damages / gastric lesions in rats treated with NEM + drug (in words)” value in data set [1] (NEM 25 mg/kg s.c., drug at maximum tolerated dose) is given as “showed gastric lesions”. The “Gastro-enteropathy (% incidence) without NEM” value in data set [1] (24 hours) came out at 0%. Moreover, the “inhibition … (in words, p<0.01)” value in data set [3] was “inhibit apoptosis”.
As for `O=C(O)COCCN1CCN(C(c2ccccc2)c2ccc(Cl)cc2)CC1` (stereo not drawn) [Cetirizine, cetirizine], the “inhibition … (in words, p<0.01)” value in data set [3] is recorded as “do not significantly inhibit apoptosis”.
With `COC(=O)[C@H](c1ccccc1Cl)N1CCc2sccc2C1` [Clopidogrel], in data set [3], the “inhibition … (in words, p<0.01)” value is recorded as “do not significantly inhibit apoptosis” and the “Apoptosis %” value stood at 110%.
In data set [4], `O=C(O)Cc1ccccc1Nc1c(Cl)cccc1Cl` [Diclofenac, diclofenac] yielded a Gastropathy % incidence of 70%.
With `COc1cccc2c1C(=O)c1c(O)c3c(c(O)c1C2=O)C[C@@](O)(C(=O)CO)C[C@@H]3O[C@H]1C[C@H](N)[C@H](O)[C@H](C)O1` [Doxorubicin, doxorubicin], in data set [2], the “Blood pressure % without L-NAME” value stood at 120%, the “GPT % without L-NAME” value is on record as 195% and the “Gastroenteropathy % without L-NAME” value is 30%. Further, the activity at 100 µM in data set [3] is 94%.
In turn, `Nc1c(Br)cc(Br)cc1CN[C@H]1CC[C@H](OC(=O)CCCO[N+](=O)[O-])CC1` [Example 3, 4-(nitroxy)butyric acid 4-[(2-amino-3,5-dibromophenyl)methylamino] trans cyclohexyl ester] registered a Gastropathy % incidence in data set [4] of 10%.
As for `O=C(CCCO[N+](=O)[O-])NCCCC(O)(P(=O)(O)O)P(=O)(O)O` [Example 4, [4-[4-(nitroxy)butyroyl]amino-1-hydroxybutylidene]biphosphonic acid], the Gastropathy % incidence in data set [4] came to 10%.
In turn, `O=C(CCCO[N+](=O)[O-])Nc1c2c(nc3ccccc13)CCCC2` [Example 11] returned a Gastropathy % incidence in data set [4] of 20%.
Regarding `COc1ccc2c(c1)c(CC(=O)O)c(C)n2C(=O)c1ccc(Cl)cc1` [Indomethacin], the “Gastro-enteropathy (% incidence) without NEM” value in data set [1] (24 hours) was 0%. Moreover, the “inhibition … (in words, p<0.01)” value in data set [3] is “not significantly different with respect to that of the controls”; in data set [3] (listed as indomethacin) it was “do not significantly inhibit apoptosis”.
Consider `Nc1ccc(O)c(C(=O)O)c1` [Mesalamine], for which the “Gastro-enteropathy (% incidence) without NEM” value in data set [1] (24 hours) is listed as 0%. The “inhibition … (in words, p<0.01)” value in data set [3] is on record as “inhibit apoptosis; also recorded: inhibits the apoptosis induced by CIP”.
With `NC(=O)c1cccnc1` [Nicotinamide], the “inhibition … (in words, p<0.01)” value in data set [3] is on record as “do not significantly inhibit apoptosis”.
Turning to `COc1ccc2[nH]c([S+]([O-])Cc3ncc(C)c(OC)c3C)nc2c1` (stereo not drawn) [Omeprazol], in data set [1] (24 hours), the “Gastro-enteropathy (% incidence) without NEM” value came out at 0%. Also, in data set [2], the “Blood pressure % without L-NAME” value is 100%, the “GPT % without L-NAME” value was 100% and the “Gastroenteropathy % without L-NAME” value turned out to be 0%. Also, the “inhibition … (in words, p<0.01)” value in data set [3] was “do not significantly inhibit apoptosis”.
`CCC(C)(C)C(=O)O[C@H]1C[C@@H](C)C=C2C=C[C@H](C)[C@H](CCC3CC(O)CC(=O)O3)[C@H]21` (stereo partly drawn) [Simvastatin, simvastatine]: the activity at 100 µM in data set [3] was found to be 72%.
As for `CC1(C)S[C@@H]2[C@H](NC(=O)[C@H](N)c3ccccc3)C(=O)N2[C@H]1C(=O)O` [ampicilline], the “inhibition … (in words, p<0.01)” value in data set [3] is given as “do not significantly inhibit apoptosis”.
enalapril: in data set [3], the “inhibition … (in words, p<0.01)” value is “do not significantly inhibit apoptosis” and the “Apoptosis %” value was 80%.
Take salbutamol: in data set [3], the “inhibition … (in words, p<0.01)” value is on record as “do not significantly inhibit apoptosis” and the “Apoptosis %” value turned out to be 90%.
